The record followed here is ChEMBL document CHEMBL1201862, “PubChem BioAssay data set” (2004).

Some test systems named below: COLO 205; K562; KM12; RXF 393; IGROV-1; OVCAR-4; UO-31; NCI-H23; U-251; SF-268; OVCAR-3; HL-60; MOLT-4; A549; SK-MEL-28; SK-OV-3; HOP-62; PC-3.
Holding throughout (experiment): inhibition of tumour cell growth, NCI panel, 48 h

Structures are written as SMILES.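 Following 48 hours of exposure in 96-well plates, responses at five concentrations were used to interpolate endpoints linearly. GI50 is the concentration that inhibits growth by half.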 Activity calls are given as the source filed them. No stated cut-off is given here; in the data, active = GI50 up to about 1.1 µM and inactive = higher.

Take `[O-]c1c2c(nn1-c1ccccc1)c1ccccc1c[n+]2Cc1ccccc1`: the GI50 was > 100 µM (inactive) in the assay with COLO 205; > 100 µM (inactive) in the assay with K562; > 100 µM (inactive) in the assay with KM12; 0.13 µM (active) in the assay with RXF 393; > 100 µM (inactive) in the assay on IGROV-1; 78 µM (inactive) in the assay on OVCAR-4. Besides, the GI50 was > 100 µM (inactive) in the assay on UO-31; > 100 µM (inactive) in the assay on NCI-H23; > 100 µM (inactive) in the assay on U-251; 47.1 µM (inactive) with SF-268; > 100 µM (inactive) with OVCAR-3; > 100 µM (inactive) in the assay with HL-60. Further, the GI50 with MOLT-4, in the assay with A549, in the assay on SK-MEL-28, with SK-OV-3 and in the assay on HOP-62 was > 100 µM (inactive) in each case.
As to `CCC(C)(O)c1cn(-c2ccc(S(=O)(=O)O)cc2)nn1` (configuration not stated), the GI50 in the assay with COLO 205, with K562, with KM12, in the assay with RXF 393, in the assay on IGROV-1 and with OVCAR-4 was > 100 µM (inactive) in each case. The GI50 with UO-31, with NCI-H23, in the assay on U-251, in the assay with SF-268, in the assay on OVCAR-3 and with HL-60 was > 100 µM (inactive) throughout. In addition, the GI50 with MOLT-4, in the assay with A549, with SK-MEL-28, with SK-OV-3 and in the assay with HOP-62 was > 100 µM (inactive) throughout.
As to `COc1ccc2c(c1)Cc1c-2[nH]c2cc3c(cc2c1=O)OCO3`, the GI50 in the assay on COLO 205 is 12 µM (inactive); in the assay with K562, 7.94 µM (inactive); in the assay with KM12, 9.48 µM (inactive); with RXF 393, 4.01 µM (inactive); in the assay with IGROV-1, 16.9 µM (inactive); with OVCAR-4, 25.4 µM (inactive). Further, the GI50 with UO-31 is 15.8 µM (inactive); in the assay with NCI-H23, 16.3 µM (inactive); in the assay on U-251, 9.89 µM (inactive); in the assay on SF-268, 18.7 µM (inactive); in the assay with OVCAR-3, 16.7 µM (inactive); in the assay with HL-60 it was 6.12 µM (inactive). For the same compound, the GI50 in the assay on MOLT-4 was 8.81 µM (inactive); in the assay on A549, 7.31 µM (inactive); in the assay on SK-MEL-28 it was 15.8 µM (inactive); in the assay with SK-OV-3, 22.3 µM (inactive); in the assay on HOP-62, 17.1 µM (inactive).
As to `Cc1ccc(NC(=O)C(=O)C(C2C(C)CC(=O)C2CC(=O)O)[N+](=O)[O-])cc1` (configuration not stated), the GI50 with COLO 205, in the assay on K562, in the assay with KM12, in the assay with RXF 393, with IGROV-1 and in the assay on OVCAR-4 was > 100 µM (inactive) throughout. Besides, the GI50 in the assay on UO-31, in the assay with NCI-H23, in the assay with U-251, with SF-268, in the assay on OVCAR-3 and with HL-60 was > 100 µM (inactive) each time. For the same compound, the GI50 in the assay with MOLT-4, with A549, in the assay on SK-MEL-28, in the assay on SK-OV-3 and in the assay with HOP-62 was > 100 µM (inactive) each time.
As for `O=C1C(Cl)C(c2cccc([N+](=O)[O-])c2)N1n1cnc2ccccc2c1=O` (configuration not stated), the GI50 with COLO 205 was > 100 µM (inactive); with K562, 49.7 µM (inactive); in the assay on KM12 it was > 100 µM (inactive); in the assay on RXF 393 it was > 100 µM (inactive); in the assay with IGROV-1 it was > 100 µM (inactive); in the assay with OVCAR-4 it was 54.6 µM (inactive). The GI50 is 14.7 µM (inactive) in the assay with UO-31; > 100 µM (inactive) with NCI-H23; > 100 µM (inactive) with U-251; > 100 µM (inactive) with SF-268; 78.7 µM (inactive) with OVCAR-3; 57 µM (inactive) with HL-60. Further, the GI50 is 35.1 µM (inactive) with MOLT-4; > 100 µM (inactive) in the assay on A549; > 100 µM (inactive) in the assay on SK-MEL-28; > 100 µM (inactive) in the assay on SK-OV-3; > 100 µM (inactive) in the assay with HOP-62.
As to `C#CCNC(=O)NCCCC(NC(C)=O)C(=O)NCc1ccccc1` (configuration not stated), the GI50 in the assay with COLO 205, in the assay on K562, in the assay on KM12, with RXF 393, in the assay with IGROV-1 and with OVCAR-4 was > 100 µM (inactive) in each case. Moreover, the GI50 in the assay on UO-31, with NCI-H23, in the assay on U-251, in the assay with SF-268, with OVCAR-3 and in the assay with HL-60 was > 100 µM (inactive) each time. The GI50 in the assay with MOLT-4, with A549, with SK-MEL-28, with SK-OV-3 and in the assay on HOP-62 was > 100 µM (inactive) throughout.
`COc1cc2c(c(OC)c1OC)-c1ccc(SC)c(=O)cc1[C@@H](NCc1ccc(F)cc1)CC2`: the GI50 in the assay on COLO 205 was < 0.0075 µM (active); in the assay with K562, < 0.0075 µM (active); with KM12, < 0.0075 µM (active); in the assay with RXF 393, < 0.0075 µM (active); in the assay with IGROV-1, < 0.0075 µM (active); in the assay with OVCAR-4, 11.6 µM (inactive). The GI50 in the assay with UO-31 was 1.03 µM (active); in the assay on NCI-H23 it was < 0.0075 µM (active); in the assay on U-251, < 0.0075 µM (active); in the assay with SF-268, < 0.0075 µM (active); in the assay on OVCAR-3, < 0.0075 µM (active); with HL-60, 0.1 µM (active). For the same compound, the GI50 with MOLT-4 was < 0.0075 µM (active); in the assay with A549, < 0.0075 µM (active); in the assay with SK-MEL-28, 8.77 µM (inactive); in the assay on SK-OV-3, < 0.0075 µM (active); in the assay on HOP-62, < 0.0075 µM (active).
As for `COc1ccc2nc(-c3ccc(N)cc3)sc2c1`, the GI50 in the assay on PC-3 was 48 µM (inactive); in the assay on COLO 205 it was > 100 µM (inactive); in the assay with K562 it was > 100 µM (inactive); with KM12, 22.3 µM (inactive); in the assay on RXF 393, > 100 µM (inactive); in the assay with IGROV-1 it was 70.5 µM (inactive). Also, the GI50 in the assay on OVCAR-4 was > 100 µM (inactive); in the assay on UO-31, 29.4 µM (inactive); in the assay with NCI-H23, > 100 µM (inactive); with U-251 it was 35.6 µM (inactive); in the assay on SF-268 it was 63.2 µM (inactive); in the assay with OVCAR-3, > 100 µM (inactive). Further, the GI50 was 47.5 µM (inactive) in the assay on HL-60; 13.6 µM (inactive) with MOLT-4; 68.1 µM (inactive) in the assay with A549; > 100 µM (inactive) in the assay on SK-MEL-28; > 100 µM (inactive) with SK-OV-3; 42.2 µM (inactive) in the assay with HOP-62.
